From the supplement of paper PMC11061612

What was measured:
Experiment in all cases: Bliss excess, mean over the matrix (fraction); higher = more synergy
[1] = system: KARPAS-422 (B-Cell Non-Hodgkin's Lymphoma)
How it was run: (§1)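 After 24 hours at 37°C and 5% CO2 in 1536-well plates, cells in DMEM/F12 or RPMI plus 10% FBS received two-drug dose matrices for 72 hours. Viability came from CellTiter-Glo 2.0 luminescence and was scaled as inhibition, anchored at 0 by vehicle wells and at 1 by blank wells. Combination Emax is taken as the second-highest inhibition in the matrix, and Bliss excess as the observed combination effect less EA + EB − EA·EB, with EA and EB the single-agent effects.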

FU97 (Gastric Carcinoma) = system: FU97 (Gastric Carcinoma)
How it was run: as §1

[2] = system: TT2609-C02 (Thyroid Gland Carcinoma)
How it was run: as §1

[3] = system: NCI-H2141 (Small Cell Lung Carcinoma)
How it was run: as §1

U-2-OS (Osteosarcoma) = system: U-2-OS (Osteosarcoma)
How it was run: as §1

[4] = system: MDST8 (Colorectal Carcinoma)
How it was run: as §1

Hs-445 (Non-Cancerous) = system: Hs-445 (Non-Cancerous)
How it was run: as §1

NCI-H2591 (Mesothelioma) = system: NCI-H2591 (Mesothelioma)
How it was run: as §1

[5] = system: ECC10 (Gastric Carcinoma)
How it was run: as §1

[6] = system: BICR22 (Oral Cavity Carcinoma)
How it was run: as §1

[7] = system: SISO (Cervical Carcinoma)
How it was run: as §1

[8] = system: OS-RC-2 (Kidney Carcinoma)
How it was run: as §1

[9] = system: CCK-81 (Colorectal Carcinoma)
How it was run: as §1

[10] = system: A549 (Lung Adenocarcinoma)
How it was run: as §1

[11] = system: NCI-H1693 (Lung Adenocarcinoma)
How it was run: as §1

CAS-1 (Glioblastoma) = system: CAS-1 (Glioblastoma)
How it was run: as §1

[12] = system: COLO-320-HSR (Colorectal Carcinoma)
How it was run: as §1

[13] = system: SK-MG-1 (Low Grade Glioma)
How it was run: as §1

[14] = system: ONS-76 (Other Solid Carcinomas)
How it was run: as §1

PA-1 (Ovarian Carcinoma) = system: PA-1 (Ovarian Carcinoma)
How it was run: as §1

Row | SMILES | Bliss excess [1] | Bliss excess (FU97 (Gastric Carcinoma)) | Bliss excess [2] | Bliss excess [3] | Bliss excess (U-2-OS (Osteosarcoma)) | Bliss excess [4] | Bliss excess (Hs-445 (Non-Cancerous)) | Bliss excess (NCI-H2591 (Mesothelioma)) | Bliss excess [5] | Bliss excess [6] | Bliss excess [7] | Bliss excess [8] | Bliss excess [9] | Bliss excess [10] | Bliss excess [11] | Bliss excess (CAS-1 (Glioblastoma)) | Bliss excess [12] | Bliss excess [13] | Bliss excess [14] | Bliss excess (PA-1 (Ovarian Carcinoma))
1 | NC1(C(=O)N[C@@H](CCO)c2ccc(Cl)cc2)CCN(c2ncnc3[nH]ccc23)CC1 [Capivasertib] + CC(=O)c1c(C)c2cnc(Nc3ccc(N4CCNCC4)cn3)nc2n(C2CCCC2)c1=O [Palbociclib] (first compound max 10 µM, 7x7, partner max 10 µM) | -0.012 | -0.0168 | -0.0398 | -0.0936 | 0.0197 | -0.0378 | -0.0616 | -0.0717 | -0.011 | -0.0329 | 0.0057 | 0.0249 | -0.0025 | -0.103 | -0.0631 | -0.044 | -0.0013 | -0.0303 | 0.027 | 0.0288
2 | COc1nnc2ccc(N3CCC(c4ccc(OCCN5CCN(C)C(=O)[C@H]5C)cc4)CC3)nn12 [AZD5153] + CCN(CCO)CCCOc1ccc2c(Nc3cc(CC(=O)Nc4cccc(F)c4)[nH]n3)ncnc2c1 [AZD2811] (first compound max 1 µM, 7x7, partner max 1 µM) | -0.0472 | -0.0048 | -0.076 | 0.0226 | -0.0044 | 0.0761 | -0.0783 | -0.0181 | -0.103 | -0.118 | 0.0112 | -0.0473 | -0.0361 | -0.0407 | -0.098 | -0.0797 | -0.0417 | -0.0568 | -0.0124 | 0.032
3 | Cc1c2c(nn1C)CSCc1cc(n(C)n1)CSc1cc(c3ccccc3c1)OCCCc1c(C(=O)O)n(C)c3c-2c(Cl)ccc13 [AZD5991] + Cn1cnc2c(F)c(Nc3ccc(Br)cc3Cl)c(C(=O)NOCCO)cc21 [Selumetinib] (first compound max 1 µM, 7x7, partner max 3 µM) | -0.0157 | -0.0609 | -0.0402 | 0.0056 | 0.0109 | -0.0014 | 0.0106 | -0.0127 | 0.0176 | 0.127 | -0.0134 | -0.0557 | 0.009 | -0.0344 | 0.0314 | -0.0036 | 0.0173 | 0.0044 | 0.0319 | 0.0085
4 | COc1cccc(OCCCN)c1-c1cc(Nc2cnc(C#N)cn2)n[nH]1 [Prexasertib] + CN(C)CCCOc1ccc(-c2ccc3ncc4c(c3c2)n(C2CCOCC2)c(=O)n4C)cn1 [AZD0156] (first compound max 1 µM, 7x7, partner max 1 µM) | 0.0128 | -0.0321 | -0.0426 | 0.009 | 0.0176 | -0.0216 | -0.0286 | -0.0141 | 0.0071 | -0.0429 | -0.0056 | -0.0393 | -0.0133 | -0.0276 | -0.0349 | -0.0336 | 0.0111 | -0.0321 | -0.0148 | 0.0031
5 | Cc1c2c(nn1C)CSCc1cc(n(C)n1)CSc1cc(c3ccccc3c1)OCCCc1c(C(=O)O)n(C)c3c-2c(Cl)ccc13 [AZD5991] + CC1(C)CCC(CN2CCN(c3ccc(C(=O)NS(=O)(=O)c4ccc(NCC5CCOCC5)c([N+](=O)[O-])c4)c(Oc4cnc5[nH]ccc5c4)c3)CC2)=C(c2ccc(Cl)cc2)C1 [Venetoclax] (first compound max 1 µM, 7x7, partner max 1 µM) | 0.205 | -0.0525 | -0.0069 | 0.107 | -0.0011 | -0.0359 | 0.0357 | -0.0252 | 0.277 | 0.0003 | -0.0181 | -0.0686 | 0.0362 | -0.0642 | -0.025 | -0.0284 | 0.0419 | -0.0221 | -0.0214 | 0.0664
6 | C=CCn1c(=O)c2cnc(Nc3ccc(N4CCN(C)CC4)cc3)nc2n1-c1cccc(C(C)(C)O)n1 [AZD1775] + C[C@@H]1COCCN1C2=NC(=NC(=C2)C3(CC3)[S@](=N)(=O)C)C4=C5C=CNC5=NC=C4 [AZD6738] (first compound max 1 µM, partner max 10 µM) | -0.0445 | -0.0414 | -0.0026 | 0.0248 | 0.0364 | -0.0161 | -0.0017 | -0.0355 | 0.0364 | 0.0233 | 0.0461 | -0.0604 | -0.0359 | -0.0313 | -0.0084 | -0.0535 | 0.0852 | -0.0173 | -0.0256 | -0.01
7 | C=CCn1c(=O)c2cnc(Nc3ccc(N4CCN(C)CC4)cc3)nc2n1-c1cccc(C(C)(C)O)n1 [AZD1775] + O=C(c1cc(Cc2n[nH]c(=O)c3ccccc23)ccc1F)N1CCN(C(=O)C2CC2)CC1 [Olaparib] (first compound max 1 µM, partner max 10 µM) | -0.0648 | -0.148 | -0.0311 | -0.0638 | -0.0258 | -0.0308 | 0.0156 | -0.053 | -0.019 | -0.106 | 0.0151 | -0.0981 | 0.042 | -0.0667 | -0.0137 | -0.0352 | -0.0404 | 0.0058 | -0.0826 | -0.0037
8 | Cn1cnc2c(F)c(Nc3ccc(Br)cc3Cl)c(C(=O)NOCCO)cc21 [Selumetinib] + C=CCn1c(=O)c2cnc(Nc3ccc(N4CCN(C)CC4)cc3)nc2n1-c1cccc(C(C)(C)O)n1 [AZD1775] (first compound max 10 µM, partner max 1 µM) | -0.0508 | 0.0052 | -0.0169 | -0.0682 | -0.0328 | -0.0165 | -0.133 | -0.0318 | -0.0058 | -0.0362 | -0.0457 | -0.023 | -0.0167 | -0.0741 | -0.0092 | -0.0342 | -0.0657 | -0.106 | -0.0452 | -0.001
9 | COc1cccc(OCCCN)c1-c1cc(Nc2cnc(C#N)cn2)n[nH]1 [Prexasertib] + Cc1cc2ncnn2cc1Nc1ncc2c(n1)n(C1CCOCC1)c(=O)n2C [AZD7648] (first compound max 1 µM, 7x7, partner max 10 µM) | -0.0787 | -0.0265 | -0.0157 | -0.0315 | -0.0223 | -0.0217 | -0.02 | -0.0079 | 0.006 | 0.0594 | 0.0136 | -0.0226 | -0.0134 | 0.0532 | 0.0337 | -0.0053 | -0.0037 | -0.0257 | -0.031 | 0.0205
10 | CC1(C)CCC(CN2CCN(c3ccc(C(=O)NS(=O)(=O)c4ccc(NCC5CCOCC5)c([N+](=O)[O-])c4)c(Oc4cnc5[nH]ccc5c4)c3)CC2)=C(c2ccc(Cl)cc2)C1 [Venetoclax] + C=CCn1c(=O)c2cnc(Nc3ccc(N4CCN(C)CC4)cc3)nc2n1-c1cccc(C(C)(C)O)n1 [AZD1775] (first compound max 1 µM, partner max 1 µM) | 0.0389 | 0.0519 | -0.0696 | 0.0167 | -0.018 | -0.0489 | 0.127 | -0.0497 | 0.0951 | 0.0453 | -0.0765 | -0.078 | -0.066 | -0.0366 | -0.0281 | 0.0375 | 0.0635 | -0.0369 | 0.0043 | 0.0034
11 | Cn1cnc2c(F)c(Nc3ccc(Br)cc3Cl)c(C(=O)NOCCO)cc21 [Selumetinib] + CC(C)n1c(=O)n(C)c2cnc3cc(F)c(-c4ccc(OCCCN5CCCCC5)nc4)cc3c21 [AZD1390] (first compound max 10 µM, 7x7, partner max 0.3 µM) | -0.032 | -0.0344 | -0.0387 | -0.0386 | -0.0464 | -0.0468 | -0.0425 | -0.0585 | 0.0038 | -0.027 | -0.0395 | -0.0371 | 0.0157 | -0.0534 | -0.0814 | -0.053 | -0.0182 | -0.049 | -0.0108 | 0.0162
12 | COc1cccc2c1C(=O)c1c(O)c3c(c(O)c1C2=O)C[C@@](O)(C(=O)CO)C[C@@H]3O[C@H]1C[C@H](N)[C@H](O)[C@H](C)O1 [Doxorubicin] + Cc1cc2ncnn2cc1Nc1ncc2c(n1)n(C1CCOCC1)c(=O)n2C [AZD7648] (first compound max 1 µM, 7x7, partner max 10 µM) | 0.0699 | -0.0094 | 0.0486 | 0.0099 | 0.0234 | 0.0756 | 0.102 | 0.0556 | 0.0602 | 0.0744 | 0.0937 | -0.0114 | 0.0481 | 0.0564 | 0.036 | 0.105 | 0.0307 | 0.133 | 0.0314 | 0.0617
13 | Cc1cc2ncnn2cc1Nc1ncc2c(n1)n(C1CCOCC1)c(=O)n2C [AZD7648] + CN(C)CCCOc1ccc(-c2ccc3ncc4c(c3c2)n(C2CCOCC2)c(=O)n4C)cn1 [AZD0156] (first compound max 10 µM, 7x7, partner max 1 µM) | -0.138 | -0.0915 | -0.0188 | 0.0033 | 0.0103 | 0.0012 | -0.0388 | -0.0089 | 0.0025 | -0.0192 | 0.0339 | 0.0028 | -0.0003 | -0.0192 | 0.0173 | -0.0246 | 0.0391 | 0.0047 | -0.0014 | -0.0117
14 | NC1(C(=O)N[C@@H](CCO)c2ccc(Cl)cc2)CCN(c2ncnc3[nH]ccc23)CC1 [Capivasertib] + CCN(CCO)CCCOc1ccc2c(Nc3cc(CC(=O)Nc4cccc(F)c4)[nH]n3)ncnc2c1 [AZD2811] (first compound max 10 µM, 7x7, partner max 1 µM) | -0.0291 | -0.004 | -0.0075 | -0.0237 | -0.001 | 0.011 | -0.0895 | -0.0025 | -0.039 | -0.0012 | 0.0229 | -0.0136 | 0.0065 | -0.0365 | -0.0446 | -0.0688 | -0.0018 | 0.0626 | -0.0191 | 0.0219
15 | NC1(C(=O)N[C@@H](CCO)c2ccc(Cl)cc2)CCN(c2ncnc3[nH]ccc23)CC1 [Capivasertib] + CC(C)n1c(=O)n(C)c2cnc3cc(F)c(-c4ccc(OCCCN5CCCCC5)nc4)cc3c21 [AZD1390] (first compound max 10 µM, 7x7, partner max 0.3 µM) | -0.0685 | -0.0099 | -0.0609 | -0.0051 | -0.0453 | -0.0327 | -0.0763 | -0.0804 | -0.0231 | -0.018 | -0.0782 | -0.0779 | -0.0514 | -0.0678 | -0.111 | -0.0671 | -0.0512 | -0.111 | -0.0894 | -0.102
